The assay deals with C57BL/6 mice. Briefly: Von Frey test of mechanical hypersensitivity. It is filed as in vivo, Mice (Mus musculus). The procedure: We utilized WT C57BL/6 mice purchased from Envigo (Indianapolis, IN, USA). Total sixteen adult male mice (8–9 weeks, 22 ± 2 g) were housed in four ventilated Plexiglas cages (4 mice per cage). Four mice were tested in each group. Mice are maintained at temperature (21 °C) in an animal housing facility accredited by the Association for Assessment and Accreditation of Laboratory Animal Care with a reversed 12-hour dark-light cycle (lights off at 1000, lights on at 2200). This study was carried out in accordance with the recommendations of the National Institutes of Health Guide for the Care and Use of Laboratory Animals. The protocol (#1201000592 by Y.F.L. for Zebrafish, and #1605001408 by R.M.vR for mice) was approved by the Purdue University Institutional Animal Care and Use Committee.
Von Frey filaments (2.44 (0.04 g)–4.31 (2 g)) and a grid platform (#58011 and #57816, Stoelting, WI, USA) were used to test mechanical hypersensitivity of mice. A modified up-and-down method was utilized as previously described. […] Drug-induced mechanical hypersensitivity was measured 30 minutes after the second injection. […]
All data are presented as means ± standard error of the mean (SEM). For our in vitro statistical analysis, AUC of calcium influx (RFU) was measured to plot dose-response curves, which were further analyzed by nonlinear regression analysis. […] EC50 values of the dose-response curves were further used to plot Schild curves, and the curves were analyzed with linear regression analysis. For the mice von Frey test, mechanical thresholds were analyzed with two-way ANOVA followed by a Bonferonni test for multiple comparison analysis. […] AUC of all curves were measured and analyzed by one-way ANOVA. […] For our time-course average displacement graph, we used 2nd degree polynomial smoothing for a better representation; however, we used data before smoothing for all statistical analysis and quantification. All in vitro and in vivo data were evaluated using GraphPad Prism 7 (GraphPad Software, La Jolla, CA) unless it stated otherwise.

On to `CC(C)c1ccc(NC(=O)Cn2cnc3c2c(=O)n(C)c(=O)n3C)cc1` [HC-030031], for which the “block of ASP7663-induced mechanical hypersensitivity” value (HC-030031 100 mg/kg p.o. 30 min before ASP7663 1 mg/kg i.p.) is recorded as “blocked mechanical hypersensitivity induced by ASP7663”. For the same compound, under “HC-030031 100 mg/kg p.o. alone”, the “mechanical thresholds of von Frey filaments, pre- vs post-drug” value was “did not show a statistical significance between pre- and post-drug mechanical thresholds”.

Regarding `CC(C)CN1C(=O)/C(=C/C(=O)O)c2cccc(F)c21` [ASP7663], the “mechanical thresholds of von Frey filaments, pre- vs post-drug” value (ASP7663 1 mg/kg i.p., measured 30 minutes after injection) was “significantly decreased mechanical thresholds”.
